# In patent publication US8273723B2, “Compositions and methods for improved glycoprotein sialylation” (Sigma-Aldrich Co. LLC, priority 2007, dated 2012):
# B1: CHO Neu3: CHO plasma membrane-associated sialidase, 417 aa, SEQ ID NO:4 (protein, listed as Cricetulus griseus)
# chain: MEEVSACSLNSTLFQQEHQKGTTYRIPALLYIPPSHTFLAFAEKRSSSKDVDALHLVLRRGVMKGHSVEWGPLQPLMEATLPGHRTMNPCPVWEQSTSRVLLFFICVPDRVTEHWQIRSGKNAARLCFLCSQDAGCSWGEVKDLTEEVIGSELKHWATFAVGPGHGIRLQSGRLIIPTYAYYFSCRFLCFPCSVKPHSLMIYSDDLGVTWHHGKLIGPQVTGECQVAEVTGTSGNLVLYCNARTPNRFRAESFSTDYGDCFQKPTLNTQLCEPRYGCQGSIVSFQPLKMPFSQDPIGKAAPTTQKSPLLDSFLEREEGVGRPSGTWLLYSHPTSKKRRINLGIYYNRNPLEVTCWSRPWILHCGPCGYSDLAVVEEQGLFACLFECGQEHECEQIAFRLFSVQEVLSCEDCTGPSRD
# Tests used:
# [1] = tested on: CHO Neu3; test: Sialidase assay in the presence of sialidase inhibitors, CHO Neu3; assay type: biochemical, CHO (Chinese hamster ovary)
# Procedure: (§1) Enzymatic sialidase activity studies were performed to confirm that the proteins coded by these two new genes having the expected functions in CHO cells. Briefly, the coding regions for the Neu1 (SEQ ID NO:1) and Neu3 (SEQ ID NO:3) genes, as well as the coding region of the previously reported Neu2 gene (Ferrari et al. (1994) Glycobiology 4(3):367-373) were cloned into pcDNA3.1 mammalian expression vectors. The expression constructs then were transfected into COS7 cells to overexpress the sialidase proteins. The pcDNA3.1 vector alone was also transfected into COS7 cells as the mock transfection. An expression construct containing green fluorescence protein (GFP) was cotransfected into the COS7 cells to normalize the transfection efficiency.
# (§2) Twenty-four hours after transfection, the cells were lysed by sonication. The cell debris was removed by centrifugation at 1000×g for 10 min at 4° C. and the supernatant factions were collected for enzymatic activity. The sialidase assay was performed as previously described (Gramer et al. (1993) Biotechnol Prog 9: 366-373) using 1 mM of 4-methylumbelliferone-Neu5Ac as substrate. For each lysate, 100 μg of protein was used in the assay. The assay was performed in triplicate. […] In fact, the Neu3 protein had more than approximately 6-15 times as much activity as Neu2. […]
# [2] = tested on: proteins encoded by the CHO Neu1, Neu2, and Neu3 genes; test: Sialidase assay in the presence of sialidase inhibitors, all sialidases; assay type: biochemical, CHO (Chinese hamster ovary); conditions: two concentrations, FIG. 2
# Procedure: as §1, §2
# [3] = tested on: Neu1 mRNA; test: Q-RT PCR of Neu1 mRNA in stably shRNA-transduced CHO-hIFNγ cells; assay type: cell-based, CHO (Chinese hamster ovary); conditions: FIG. 7A
# Procedure: (§3) The expression of each of the three CHO sialidase genes was knocked down using small interfering RNA (siRNA) technologies. Based on the cDNA sequences, several siRNAs against the CHO sialidase genes (Neu1, Neu2, and Neu3) were designed and synthesized for each gene. These siRNAs were transfected into a CHO cell line stably expressing human interferon gamma (CHO-hIFNγ). The transfections were performed in duplicate. Forty-eight hours after transfection, the cells were harvested. RNA and protein were isolated from the transfected cells. Reverse transcription polymerase chain reaction, (RT-PCR) and quantitative RT-PCR (Q-RT-PCR) using gene-specific primers were performed using standard procedures.
# (§4) DNA fragments encoding the effective siRNAs for each sialidase gene (Neu1-S4, Neu2-S3, Neu3-S2) were cloned into the pLKO.1-puro shRNA expression vector. After DNA sequencing confirmation, plasmid DNAs were transfected into HEK293 cells to produce lentivirus packed with shRNA cassettes. After infection of suspension CHO-hIFNγ cells with lentivirus containing shRNA cassettes and puromycin selection, CHO-hIFNγ cells harboring shRNA cassettes for Neu1, Neu2 and Neu3 genes were obtained. Q-RT PCR was performed to confirm gene-silencing effects at the level of mRNA (FIG. 7). […]
# [4] = tested on: hIFNγ protein produced by CHO-hIFNγ cells; test: Sialic acid content of purified hIFNγ from shRNA CHO cells by HPLC; assay type: cell-based, CHO (Chinese hamster ovary); conditions: for levels of sialic acid in hIFNγ protein versus non-target shRNA control: day 6; for sialic acid content of hIFNγ protein: n=4
# Procedure: The levels of sialic acid were analyzed by HPLC in human IFNγ protein produced by the sialidase shRNA targeted cells and non-target shRNA control cells. Spent media samples were collected from 5 L bioreactor cultures at stationary phase (day 6, cell viability around 95%) and death phase (day 13, cell viability around 20%). Human interferon gamma proteins were purified from cell culture supernatants by immunoaffinity purification. Briefly, after centrifugation and filtration to remove cell debris, 30 ml of a protein sample was loaded on an affinity column conjugated with hIFNγ antibody. After washing the column, hIFNγ protein was eluted with elution buffer. Purification was carried out on an AKTA Explorer 100 chromatographic system (Amersham Biosciences). The purified protein was quantified by ELISA as previously described.
# The sialylation of purified hIFNγ proteins were analyzed by HPLC. Briefly, 50 μg of purified hIFNγ protein sample was lyophilized and resuspended in 100 μl of ultrapure water with 2N acetic acid. The sample was hydrolyzed at 80° C. for 3 hours. Then the sample was filtered and speed-vac dried. Released sialic acid residues were derivatized with a fluorogenic compound, 1,2-diamino-4,5-(methylenedioxy)benzene (DMB), followed by HPLC using C18 reverse phase column.
# [5] = tested on: Neu2 mRNA; test: Q-RT PCR of Neu2 mRNA in stably shRNA-transduced CHO-hIFNγ cells; assay type: cell-based, CHO (Chinese hamster ovary); conditions: FIG. 7B
# Procedure: as §3, §4
# [6] = tested on: Neu3 mRNA; test: Q-RT PCR of Neu3 mRNA in stably shRNA-transduced CHO-hIFNγ cells; assay type: cell-based, CHO (Chinese hamster ovary); conditions: FIG. 7C
# Procedure: as §3, §4
# [7] = tested on: sialidase activity in CHO-hIFNγ cells; test: Sialidase activity assay in CHO-hIFNγ cells harboring shRNA; assay type: cell-based, CHO (Chinese hamster ovary); conditions: stable shRNA, FIG. 8
# Procedure: (§5) Twenty-four hours after transfection, the cells were lysed by sonication. The cell debris was removed by centrifugation at 1000×g for 10 min at 4° C. and the supernatant factions were collected for enzymatic activity. The sialidase assay was performed as previously described (Gramer et al. (1993) Biotechnol Prog 9: 366-373) using 1 mM of 4-methylumbelliferone-Neu5Ac as substrate. For each lysate, 100 μg of protein was used in the assay. The assay was performed in triplicate. […] In fact, the Neu3 protein had more than approximately 6-15 times as much activity as Neu2.
# as §4, with “7). The mRNA expression knockdown of Neu1 (Neu1-S4) was over 95% in Neu1-shRNA cells (FIG. 7A), about 50% knockdown with Neu2 (Neu2-S3) in Neu2-shRNA cells (FIG. 7B), and over 70% knockdown with Neu3 (Neu3-S2) in Neu3-shRNA cells (FIG. 7C).” for “7).”
# [8] = Sialidase assay on lysates of COS7 cells overexpressing CHO sialidase proteins; assay type: biochemical, CHO (Chinese hamster ovary)
# Procedure: as §1, §5
molecule,measurement,setting,value
CC(=O)N[C@H]1[C@H]([C@H](O)[C@H](O)CO)OC(C(=O)O)=C[C@@H]1O [Neu5Ac2en],decrease of sialidase activity,[1]; 0.1 mM inhibitor,about 30%
same,reduction of sialidase activity,[1]; 0.5 mM inhibitor,about 60%
same,inhibitory effect on sialidase activity (comparison of the two inhibitors),[2],greater inhibitory effects than Neu5Ac
"Neu1-S4: siRNA/shRNA against CHO Neu1; sense GGACACUACGCGUCAUCUGtt (SEQ ID NO 10), antisense CAGAUGACGCGUAGUGUCCtt (SEQ ID NO 11) (sense GGACACUACGCGUCAUCUGTT; antisense CAGAUGACGCGUAGUGUCCTT; chemistry not given here; listed as Cricetulus griseus)",mRNA expression knockdown of Neu1,[3],over 95%
same,levels of sialic acid in hIFNγ protein versus non-target shRNA control,[4],not significantly different
same,sialylation of hIFNγ versus non-target shRNA control,[4]; day 13,no obvious improvement
"Neu2-S3: siRNA/shRNA against CHO Neu2; sense GACGGAUGAGCAUGCAGAUtt (SEQ ID NO 14), antisense AUCUGCAUGCUCAUCCGUCtt (SEQ ID NO 15) (sense GACGGAUGAGCAUGCAGAUTT; antisense AUCUGCAUGCUCAUCCGUCTT; chemistry not given here; listed as Cricetulus griseus)",mRNA expression knockdown of Neu2,[5],about 50%
same,levels of sialic acid in hIFNγ protein versus non-target shRNA control,[4],not significantly different
same,sialic acid content of hIFNγ protein,[4]; day 6 (stationary phase),1.945±0.111 pmol sialic acid/pmol hIFNγ
same,sialic acid content of hIFNγ protein,[4]; day 13 (death phase),4.948±0.150 pmol sialic acid/pmol hIFNγ
"Neu3-S2: siRNA/shRNA against CHO Neu3; sense GUACCAGCCGUGUGUUACUtt (SEQ ID NO 18), antisense AGUAACACACGGCUGGUACtt (SEQ ID NO 19) (sense GUACCAGCCGUGUGUUACUTT; antisense AGUAACACACGGCUGGUACTT; chemistry not given here; listed as Cricetulus griseus)",mRNA expression knockdown of Neu3,[6],over 70%
same,sialidase activity compared to non-target shRNA control,[7],most dramatic reduction
same,sialic acid content of hIFNγ protein,[4]; day 6 (stationary phase),2.133±0.101 pmol sialic acid/pmol hIFNγ
B1,sialidase activity compared to negative control (mock transfection) and positive control (Neu2),"[8]; 100 μg lysate protein, 1 mM 4-methylumbelliferone-Neu5Ac, normalized with GFP readings",significant sialidase activities
same,sialidase activity relative to Neu2,"[8]; more than approximately, lysates of transfected COS7 cells",6-15 times
same,sialic acid content of hIFNγ protein,[4]; day 13 (death phase),5.175±0.414 pmol sialic acid/pmol hIFNγ
